# What was measured:
# [1] = DPPH radical scavenging assay; assay type: physicochemical; settings: compound 50 μM, DPPH 100 μM
# Excerpt: Starting from these evidences, we tested DAN in two in vitro models of radical scavenging activity, i.e., the 1,1-diphenyl-2-picryl-hydrazyl (DPPH) and 2,2′-azinobis-(3-ethylbenzothiazoline-6-sulfonic acid) (ABTS) free radical production. Both generate stable nitrogen radicals showing high absorption in visible spectrum, thus allowing easy and straightforward spectrophotometric measures. […] It can be assumed that the antioxidant activity of DAN is independent from its radical scavenging properties.
# Already published protocols for DPPH and […] radical scavenging were used. The scavenging of the radical DPPH^·, or the monocation radical ABTS^·+, were determined by measuring the loss of absorbance at 515 or 755 nm, respectively. Samples were prepared in clear polystyrene flat-bottomed 96-well microplates. […] A preliminary absorbance reading at 755 nm allowed to determine the actual ABTS^·+ concentration (normally 60–70 μM; extinction coefficient ε = 12,000) and set the final concentration of inhibitors to 0.2[ABTS^·+]. 215 μL of ABTS^·+ solution were mixed with 35 μL of stock solution of inhibitors and the decrease in absorbance was monitored. Antioxidant activity was determined from Equation (2) as the percentage of radical production of inhibitor containing samples, compared with control: % radical production = 100 × ABSsample/ABScontrol(2)
# [2] = system: CAC mutants C136S, C155S, C136/155S, C-lessV; assay: Transport activity of cysteine-modified CAC mutants in proteoliposomes; assay type: biochemical, rat; settings: 10 μM, C-less V compared with WT
# Method: The reducing properties of DAN were studied on the recombinant WT CAC with the protein at different states of oxidation. Figure 8B highlights that when the carrier was incubated during the transport activity with 1 mM dithioerythritol (DTE), 10 µM DAN was able to reduce a major aliquot of oxidized protein (70% recovery of activity compared to the control). […] To identify the cysteines responsible for the activation of the CAC carrier, the proteoliposomes of the WT protein and the mutants C136S, C155S, C136/155S, and C-lessV (C23V/C58V/C89S/C136V/C155V/C283S) were incubated with 10 μM DAN. […] Further evidence of the reducing action of DAN on CAC was obtained by oxidation of the reconstituted WT protein under controlled conditions, i.e., in the presence or absence of hydrogen peroxide and its subsequent degradation by the enzyme catalase. […]
# Before starting the transport activity, proteoliposomes were passed through a Sephadex G-75 column (0.7 cm diameter; 15 cm height; Pharmacia, Milan, Italy) to remove the external substrate. […] Finally, the external substrate was removed by chromatography on Sephadex G-75 columns (0.7 cm diameter; 10 cm height) and intraliposomal radioactivity was measured by a liquid scintillation counter (Perkin Elmer, Milan, Italy).
# [3] = cited from earlier work
smiles,measurement,setting,value
O=C1CN(/N=C/c2ccc(-c3ccc([N+](=O)[O-])cc3)o2)C(O)=N1 [Dantrolene],DPPH radical scavenging activity,[1],no activity
same,increase in transport activity on cysteine mutants,[2],significantly lost
same,concentration found in the cytosolic compartment in vivo,[3],10 µM
